# Patent US20060106005A1, “Funtionalised metallocenes as anticancer drugs” (priority 2003, published 2006)
# Where two headings read alike, the source gives them in different places.
# Legend:
# A2780-cis = experiment: Anti-proliferative effect on cisplatin-resistant A2780-cis; type: cell-based; details: for relative sensitivity of A2780 and A2780cis cell lines: relative to A2780 144 hr; for relative sensitivity of cell lines: relative to LoVo; for DIFFERENTIAL: IC50 of 2 relative to Cisplatin
# Source text: In order to determine whether these types of complexes overcome platinum resistance in vitro, the anti-proliferative effects of 2 on cisplatin-resistant […] were examined (see Table 3).
# MCF-7 = experiment: Sensitivity of cell lines to Cisplatin and Ti compounds (MCF-7); type: cell-based; details: for relative sensitivity of cell lines: MCF-7, relative to LoVo
# LS 174T = experiment: Sensitivity of cell lines to Cisplatin and Ti compounds (LS 174T); type: cell-based; details: for relative sensitivity of cell lines: LS-174T, relative to LoVo
# LoVo = experiment: Sensitivity of cell lines to Cisplatin and Ti compounds (LoVo); type: cell-based; details: for relative sensitivity of cell lines: LoVo (reference line = 1)
# A2780 = experiment: Sensitivity of cell lines to Cisplatin and Ti compounds (A2780); type: cell-based; details: for relative sensitivity of cell lines: A2780, relative to LoVo; for DIFFERENTIAL: IC50 of 2 relative to Cisplatin
# [1] = system: xenografted tumours of the colon, head, breast, rectum, lung and stomach; details: in vivo; cited from earlier work
# LX1 = details: LX1, histologically unclassified lung tumour; cited from earlier work
# [2] = system: certain cancer cell lines; details: compared to Cp2TiCl2
# [3] = A2780-cis (24 hour), read-out: IC50
# [4] = A2780 (24 hour), read-out: IC50
# [5] = A2780, exposure time 24 hr, relative to A2780 144 hr
# [6] = A2780, exposure time 144 hr (reference = 1)
Compound,IC50 (A2780-cis; [3]),"IC50 (A2780-cis; A2780-cis, read-out: IC50)","relative sensitivity of A2780 and A2780cis cell lines (A2780-cis; A2780cis, exposure time 24 hr)","relative sensitivity of A2780 and A2780cis cell lines (A2780-cis; A2780cis, exposure time 144 hr)",relative sensitivity of cell lines (A2780-cis; A2780cis),relative sensitivity of cell lines (MCF-7),IC50 (LS 174T; LS 174T),relative sensitivity of cell lines (LS 174T),IC50 (LoVo; LoVo),relative sensitivity of cell lines (LoVo),IC50 (A2780; [4]),relative sensitivity of A2780 and A2780cis cell lines (A2780; [5]),relative sensitivity of A2780 and A2780cis cell lines (A2780; [6]),relative sensitivity of cell lines (A2780),"IC50 (A2780; A2780, read-out: IC50)",anti-tumour activity against LX1 (LX1),also measured
"N.N.[Cl][Pt][Cl] [Cisplatin, cisplatin, reference compound]",5.4 µM,2.1 µM,6.59,2.56,5.7,24.3,0.5 µM,1.35,0.37 µM,1,1 µM,1.22,1,2.2,0.82 µM,,"resistance relative to 2 (times more resistant) (A2780-cis; cisplatin-resistant A2780, after 144 hours): 3 times"
"C1=C[CH]([Ti+2][CH]2C=CC=C2)C=C1.[Cl-].[Cl-].[Ti+2].c1cc[cH-]c1.c1cc[cH-]c1 [Cp2TiCl2, titanocene (bis-cyclopentadienyl titanium)dichloride]",,,,,,,,,,,,,,,,no significant anti-tumour activity,sensitivity of xenografted tumours [1]: significantly sensitive
"[Cl-].[Cl-].[V+4].c1cc[cH-]c1.c1cc[cH-]c1 [Cp2VCl2, vanadocene(bis-cyclopentadienyl vanadium)dichloride]",,,,,,,,,,,,,,,,significant activity,
[Cp(CH2)2NH(CH2)5]2TiCl2.2HCl [compound 2],154 µM,28 µM,4.97,0.90,0.45,1,36 µM,0.58,62 µM,1,168 µM,5.42,1,0.5,31 µM,,"potency relative to Cp2TiCl2 (times more potent) [2]: around 10 times; DIFFERENTIAL (A2780-cis; A2780-cis (24 hour)): 28.5 µM; DIFFERENTIAL (A2780-cis; A2780-cis): 13.3 µM; IC50 (A2780-cis; A2780cis, 7 days, read-out: IC50 (7 days)): 4.3 µM; IC50 (MCF-7; MCF-7): 62 µM; DIFFERENTIAL (MCF-7; MCF-7, IC50 of 2 relative to Cisplatin): 6.9 µM; DIFFERENTIAL (LS 174T; LS 174T, IC50 of 2 relative to Cisplatin): 72 µM; DIFFERENTIAL (LoVo; LoVo, IC50 of 2 relative to Cisplatin): 167.6 µM; DIFFERENTIAL (A2780; A2780 (24 hour)): 168 µM; IC50 (A2780; A2780, 7 days, read-out: IC50 (7 days)): 99.1 µM; DIFFERENTIAL (A2780; A2780): 37.8 µM"
